Legend:
[1] = target: human D2-long dopamine receptor (Homo sapiens (Human), UniProt P14416); assay: Radioligand binding (125I-IABN competition), D2; settings: HEK cell membranes expressing human D2-long
Experimental: (§1) The affinities of the target compounds were determined using radioligand binding experiments. […] Competition curves were modeled for a single site. Data from competition dose-response curves were analyzed using Tablecurve program (Jandel). IC50 values were converted to equilibrium dissociation constants (Ki values) using the Cheng and Prusoff correction.

D3R = D3R (Homo sapiens (Human), UniProt P35462); assay: β-Arrestin Recruitment Assay, U2OS DRD3; format: cell-based; settings: antagonist vs EC80 8 nM PD128907, U2OS DRD3 cells; read-out: D3 IC50
Chain of D3R (P35462 whole entry): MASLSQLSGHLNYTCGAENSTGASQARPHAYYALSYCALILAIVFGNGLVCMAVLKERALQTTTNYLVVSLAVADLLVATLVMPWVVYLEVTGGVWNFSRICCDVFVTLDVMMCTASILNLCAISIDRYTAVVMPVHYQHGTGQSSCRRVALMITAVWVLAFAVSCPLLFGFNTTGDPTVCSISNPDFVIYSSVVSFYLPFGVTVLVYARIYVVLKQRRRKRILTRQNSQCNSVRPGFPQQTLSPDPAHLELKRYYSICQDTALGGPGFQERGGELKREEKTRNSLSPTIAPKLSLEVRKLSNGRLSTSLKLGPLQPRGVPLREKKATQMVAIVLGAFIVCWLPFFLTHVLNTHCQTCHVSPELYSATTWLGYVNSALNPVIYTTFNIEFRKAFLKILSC
Experimental: Antagonist potency of the compounds against agonist induced recruitment of β-arrestin by D3R and D2LR was measured using DiscoverRx PathHunter eXpress kits. […] After incubation at 37° C. for 90 min, the DiscoveRx detection reagent was added, the plates were incubated at room temperature for 60 min and the luminescence was measured on a Synergy 4 plate reader (BioTek). The data were plotted and the agonist EC80 values were calculated using GraphPad Prism software. For antagonist activity, the cells were plated as described above and treated with multiple concentrations (starting from 500 nM, half log dilution, 10 dose points) of the test compounds in Plating Reagent with 0.1% DMSO.

[2] = target: human D3 dopamine receptor (Homo sapiens (Human), UniProt P35462); assay: Radioligand binding (125I-IABN competition), D3; settings: 125I-IABN competition, HEK cell membranes expressing human D3
Chain of human D3 dopamine receptor (P35462 whole entry): as above
Experimental: as §1

human D2 receptors = human D2 receptors (Homo sapiens (Human), UniProt P14416); assay: D2 Mitogenesis Functional Assay (3H-thymidine uptake, CHOp-D2 cells); format: cell-based; settings: inhibition of quinpirole (30 nM final) stimulation of mitogenesis; read-out: D2 Antagonist IC50
Chain of human D2 receptors (P14416 whole entry): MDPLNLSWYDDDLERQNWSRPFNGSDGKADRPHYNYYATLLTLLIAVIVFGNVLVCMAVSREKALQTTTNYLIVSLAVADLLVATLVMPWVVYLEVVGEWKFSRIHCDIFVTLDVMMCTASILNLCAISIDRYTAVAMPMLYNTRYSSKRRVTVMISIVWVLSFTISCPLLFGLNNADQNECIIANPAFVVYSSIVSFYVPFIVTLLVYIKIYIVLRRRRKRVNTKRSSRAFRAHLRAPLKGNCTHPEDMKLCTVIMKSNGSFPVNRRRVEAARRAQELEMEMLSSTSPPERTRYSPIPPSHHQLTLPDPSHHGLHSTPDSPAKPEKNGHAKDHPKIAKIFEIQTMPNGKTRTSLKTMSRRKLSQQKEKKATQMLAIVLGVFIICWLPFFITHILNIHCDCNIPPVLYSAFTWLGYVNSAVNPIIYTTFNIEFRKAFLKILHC

Long Evans rats = assay: Cocaine self-administration under PR schedule of reinforcement; format: in vivo, rat; settings: 3.75, 7.5 or 15 mg/kg intraperitoneally 10 minutes prior to session; compared to vehicle, ps<0.05; cocaine 0.375, 0.75, […]
Experimental: These studies were performed using Long Evans rats using standard protocols (Quinlan M. G. et al. Psychopharmacol. 2004, 175, 53-59; Ranaldi, R. et al. Behav. Pharmacol. 2011, 22, 347-353). Cocaine self-administration sessions were conducted in sixteen operant chambers; eight measuring 30×22×27 cm (l×w×h) and the other eight measuring 26×26×30 cm (l×w×h). Each chamber was situated inside a sound-attenuating box and was equipped with two retractable levers, a white light above each lever, and a tether. Polyethylene tubing, covered by the tether, connected the animal, through a fluid swivel, to a syringe in a syringe pump (Razel, 3.33 rpm). Cocaine was dissolved in 0.9% saline to achieve doses of 0.375, 0.75 and 1.5 mg/kg/injection. […] Each animal was tested with one dose of the D3 antagonist, randomly determined, at as many of the three cocaine doses as possible. After a particular test the animal's cocaine dose was changed to another one (randomly determined) and its baseline BP on the new dose was established. BP during the test session was expressed as the percentage of the average BP obtained during the last three baseline sessions. Percentage of baseline BP and final ratio (i.e. the number of lever presses required for the BP infusion) were analyzed using separate two-way analyses of variance (ANOVAs) with dose of 113 and dose of cocaine as between-groups factors. […]

Chain of human D2-long dopamine receptor (P14416 whole entry): as above

Ki [1]: 511 ± 65.6 nM
IC50 (D3R): 0.56 ± 0.12 nM
Ki [2]: 4.2 ± 0.6 nM
IC50 (human D2 receptors): 2300 ± 1100 nM
Compound: CC(C)(C)c1nc(N2CCN(CCCCNC(=O)c3cn4ccccc4n3)CC2)cc(C(F)(F)F)n1 [Compound 113, N-(4-(4-(2-(tert-Butyl)-6-(trifluoromethyl)pyrimidin-4-yl)piperazin-1-yl)butyl)imidazo[1,2-a]pyridine-2-carboxamide]
percentage of baseline BPs for cocaine under PR schedule (Long Evans rats): significant reductions in the percentage of baseline BPs
